Data as given in publication PMC12649408 (Antibiotics, 2025).
Where two headings read alike, the source gives them in different places. Bridge positions count the residues as written; N and C are the ends. Ends that are not written are not given here.

Experiments:
[1] = tested on: human red blood cells (hRBCs)
Method: All procedures were approved by the Ethics Committee of the Institute of Experimental Medicine (protocol 1/20 of 2/27/2020) and comply with the ethical principles of the Declaration of Helsinki. […] Samples were centrifuged to sediment intact red blood cells. Supernatants containing released hemoglobin were transferred to 96-well microplates, and absorbance was measured at 405 nm. Untreated hRBCs in PBS (A0) and hRBC treated with 0.1% Triton X-100 (Sigma-Aldrich) (Acontrol) were used as negative and positive controls, respectively. The percentage of hemolysis was calculated as [(Asample − A0)/(Acontrol − A0)] × 100%. The experiment was carried out twice in duplicate.

[2] = tested on: C. albicans ATCC 18804; details: Sabouraud broth
Method: (§1) Using the two-fold serial dilution method, antifungal activities of the obtained analogues were tested against different C. albicans strains: susceptible collection strain ATCC 18804; resistant to azoles and anidulafungin collection strain ATCC 10231 and clinical isolates 9.1 and 8.2 [7].
(§2) The antifungal assay was performed by the microdilution method using 96-well microplates and Sabouraud broth as described earlier. […] After that, the plates were incubated at 30 °C for 24 h. A control without antifungals was also tested. Fungal growth was evaluated by measuring absorbance at 630 nm. […] All the experiments were performed twice in triplicate. Microscopic analysis of fungal growth was performed using inverted microscopy (Olympus, Tokyo, Japan). A 0.1% BSA solution was used for the blocking of each microplates well to prevent the adsorption of antifungal agents.

[3] = tested on: C. albicans clinical isolate 9.1; details: Table 2; resistant clinical isolate 9.1; Sabouraud broth, 30 °C, 24 h, 100% inhibition
Method: as §1, §2

[4] = tested on: C. albicans clinical isolate 8.2; details: Table 2; resistant clinical isolate 8.2; Sabouraud broth, 30 °C, 24 h, 100% inhibition
Method: as §1, §2

[5] = tested on: C. albicans ATCC 10231; details: Table 2; strain resistant to azoles and anidulafungin; Sabouraud broth, 30 °C, 24 h, 100% inhibition
Method: as §1, §2

[6] = tested on: PBMCs; assay: Cytotoxicity assay, resazurin method; format: cell-based, human; details: for СС50 PBMCs: Table S2, 24 h in RPMI-1640, resazurin, twice in duplicate
Method: (§3) Cytotoxic activity of the peptides was investigated against human peripheral blood mononuclear cells (PBMCs) and the Caco-2 epithelial monolayer as an in vitro model of the intestinal barrier using a RPMI-1640 medium and resazurin-test.
(§4) In brief, Caco-2 cells in a monolayer or 2 × 10^6 PBMCs per well were incubated with serial dilutions of the peptides for 24 h in RPMI-1640. Resazurin (Sigma, St. Louis, MO, USA) was then added at a final concentration of 70 µM and the plates were incubated for 20 h. Untreated cells (F0) and cells treated by 0.1% Triton X-100 (Sigma-Aldrich) (Fcontrol) were used as negative and positive controls, respectively. Cell viability was assessed by resorufin fluorescence using a 535/595 nm filter and a PlateReader AF2200 as ((Fsample − F0)/(Fcontrol − F0)) × 100%. […] The experiment was carried out twice in duplicate.

[7] = tested on: Caco-2 cell monolayer; assay: Cytotoxicity assay, resazurin method; format: cell-based, human; details: for concentration at which cell viability was 0% (100% cell death) / concentration at which cell viability was 50%: Caco-2 monolayer, RPMI-1640, resazurin-test; for СС50 Caco-2: Table S2, monolayer, 24 h in RPMI-1640, resazurin, twice in duplicate
Method: as §3, §4

[8] = not given; remark: listed apart in the source
[9] = not given; remark: listed apart in the source
[10] = not given; remark: listed apart in the source
[11] = not given; remark: listed apart in the source
[12] = not given; remark: listed apart in the source
[13] = not given; remark: listed apart in the source
[14] = tested on: C. albicans ATCC 18804; assay: Checkerboard antifungal assay; format: cell-based; details: Sabouraud broth, 24 h, 30 °C, synergism at FICI ≤ 0.5, additive action at 0.5 < FIC ≤ 1
Method: All three selected analogues acted synergistically with caspofungin, and the FICI value for NaD1-2 was lower than that of the tobacco defensin.
Two-fold serial dilutions of each test agent were prepared in 96-well microplates in water or 1% DMSO in the case of caspofungin and mixed with equal volumes of suspensions of C. albicans cells (4 × 10^4 cells/mL) in Sabouraud broth, followed by 24 h incubation at 30 °C. Controls containing DMSO at a final concentration of 0.5% (cells only and single agent dilutions) were included in all caspofungin combination assays. […] To assess the combined effect of antifungal substances, the fractional inhibitory concentration index (FICI) was calculated as FICI = ([A])/([MICA]) + ([B])/([MICB]), where [MICA] and [MICB] are the MICs of the substances A and B, respectively, and [A] and [B] are the concentrations of the substances A and B in iso-effective combinations, respectively.

[15] = not given; remark: listed apart in the source
[16] = not given; remark: listed apart in the source
[17] = target: T1, trypsin (Bos taurus, UniProt P00760); details: 24 h, 37 °C, 50 mM ammonium bicarbonate buffer pH 8.0, 2.5 ng trypsin per 1 μg peptide, SDS-PAGE
T1 construct: gene PRSS1
Method: (§5) For that purpose, peptides were incubated for 24 h at 50 mM ammonium bicarbonate buffer, pH 8.0, with or without protease.
(§6) The results of proteolysis were monitored by SDS-PAGE (17% T, 3%C). α-Casein, known for its susceptibility to proteolytic digestion, was used in these experiments for comparison.

[18] = not given; remark: listed apart in the source
[19] = not given; remark: listed apart in the source
[20] = tested on: α-chymotrypsin; details: 24 h, 37 °C, 50 mM ammonium bicarbonate buffer pH 8.0, 10 ng α-chymotrypsin per 1 μg peptide, SDS-PAGE
Method: as §5, §6

[21] = not given; remark: listed apart in the source
[22] = Table 2, 30 °C, 24 h, 100% inhibition of fungal growth, absorbance 630 nm, two-fold dilutions, twice in triplicate
[23] = Table 3, No Salts, 50% inhibition of fungal growth
[24] = Table 3, No Salts, 100% inhibition of fungal growth

T1 sequence (P00760 24-246): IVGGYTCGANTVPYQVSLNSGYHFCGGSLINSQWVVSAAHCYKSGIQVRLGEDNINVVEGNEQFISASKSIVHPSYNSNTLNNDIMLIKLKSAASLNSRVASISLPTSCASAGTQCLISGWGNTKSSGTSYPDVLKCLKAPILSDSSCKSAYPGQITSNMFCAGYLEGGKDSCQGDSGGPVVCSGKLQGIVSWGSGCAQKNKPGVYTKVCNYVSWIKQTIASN

RECKTESNTFPGICITKPPCRKACISEKFTDGHCSKILRRCLCTKPC (disulfide 3-47, 14-34, 20-41, 24-43) [NaD1]
Random, SDS micelles: 31% | Hemolysis at 100 µM ([1]; 100 µM): 14% | IC50 ([2]; 50 mM NaCl, 50% inhibition): 12.5 to 25 µM | MIC ([2]; 50 mM NaCl, 100% inhibition): 50 µM | IC50 ([2]; 150 mM NaCl, 50% inhibition): > 50 µM | MIC [2, 22]: 6.25 µM | IC50 [2, 23]: 1.56 to 3.13 µM | MIC [2, 24]: 6.25 µM | IC50 ([2]; […] CaCl2, 50% inhibition): > 50 µM | MIC ([2]; […] CaCl2, 100% inhibition): >50 µM | IC50 ([2]; […] MgCl2, 50% inhibition): 3.13 to 6.25 µM | MIC ([2]; […] MgCl2, 100% inhibition): 12.5 µM | MIC [3]: 6.25 µM | MIC [4]: 6.25 µM | MIC [5]: 6.25 µM | cell viability ([6]; PBMCs, peptide 100 μM, RPMI-1640, resazurin-test): approximately 72% | СС50 PBMCs [6]: > 100 µM | concentration at which cell viability was 0% (100% cell death) [7]: 37.5 µM | concentration at which cell viability was 50% [7]: 10.5 µM | СС50 Caco-2 [7]: 10.5 µM | Random, DPC micelles [8]: 34.2% | β-Turn, SDS micelles [9]: 22.2% | Random, aqueous solution [10]: 35.8% | α-Helix, SDS micelles [11]: 15.8% | α-Helix, aqueous solution [12]: 7.5% | β-Turn, aqueous solution [13]: 21.3% | FICI LL-37 ([14]; combination of the peptide with LL-37): 0.38 | FICI Casp ([14]; combination of the peptide with caspofungin): 0.31 | β-Sheet, aqueous solution [15]: 35.4% | α-Helix, DPC micelles [16]: 9.3% | stability to trypsin digestion [17]: high stability | β-Sheet, SDS micelles [18]: 31% | β-Turn, DPC micelles [19]: 21.1% | stability to chymotrypsin digestion [20]: high stability | β-Sheet, DPC micelles [21]: 35.4%

H-RECKTESNTFPGICITKPPCRKACISEKFTDGHCSKIRRRCLCRRPC-OH (disulfide 3-47, 14-34, 20-41, 24-43)
Random, SDS micelles: 31% | Random, DPC micelles [8]: 32.9% | β-Turn, SDS micelles [9]: 21.7% | Random, aqueous solution [10]: 37.7% | α-Helix, SDS micelles [11]: 16.6% | α-Helix, aqueous solution [12]: 8.9% | β-Turn, aqueous solution [13]: 22.7% | β-Sheet, aqueous solution [15]: 30.7% | α-Helix, DPC micelles [16]: 14.1% | β-Sheet, SDS micelles [18]: 30.8% | β-Turn, DPC micelles [19]: 21.7% | β-Sheet, DPC micelles [21]: 31.2%

CC[C@H](C)[C@H](NC(=O)CN)C(=O)NCC(=O)N[C@@H](C)C(=O)N[C@H](C(=O)N[C@@H](CC(C)C)C(=O)N[C@@H](CCCCN)C(=O)N[C@H](C(=O)N[C@@H](CC(C)C)C(=O)N[C@H](C(=O)N[C@H](C(=O)NCC(=O)N[C@@H](CC(C)C)C(=O)N1CCC[C@H]1C(=O)N[C@@H](C)C(=O)N[C@@H](CC(C)C)C(=O)N[C@H](C(=O)N[C@@H](CO)C(=O)N[C@@H](Cc1c[nH]c2ccccc12)C(=O)N[C@H](C(=O)N[C@@H](CCCCN)C(=O)N[C@@H](CCCNC(=N)N)C(=O)N[C@@H](CCCCN)C(=O)N[C@@H](CCCNC(=N)N)C(=O)N[C@@H](CCC(N)=O)C(=O)N[C@@H](CCC(N)=O)C(N)=O)[C@@H](C)CC)[C@@H](C)CC)[C@@H](C)O)[C@@H](C)O)C(C)C)C(C)C [melittin]
СС50 PBMCs [6]: 6.10 µM | concentration at which cell viability was 0% (100% cell death) [7]: ~12.5 µM | concentration at which cell viability was 50% [7]: ~2.5 µM | СС50 Caco-2 [7]: 2.35 µM

RECKTESNTFPGICITKPPCRKACISEKFTDGHCRGFRRRCLCTKPC (disulfide 3-47, 14-34, 20-41, 24-43) [NaD1-L5]
Random, SDS micelles: 35.9% | Hemolysis at 100 µM ([1]; Table S2, 4% v/v hRBCs in PBS, 2 h, 37 °C): no hemolysis | IC50 ([2]; 50 mM NaCl, 50% inhibition): 25 to 50 µM | MIC ([2]; 50 mM NaCl, 100% inhibition): 50 µM | IC50 ([2]; 150 mM NaCl, 50% inhibition): > 50 µM | MIC ([2]; 150 mM NaCl, 100% inhibition): >50 µM | MIC [2, 22]: 6.25 µM | IC50 [2, 23]: 3.13 to 6.25 µM | MIC [2, 24]: 6.25 µM | IC50 ([2]; […] CaCl2, 50% inhibition): 25 to 50 µM | MIC ([2]; […] CaCl2, 100% inhibition): 50 µM | IC50 ([2]; […] MgCl2, 50% inhibition): 12.5 to 25 µM | MIC ([2]; […] MgCl2, 100% inhibition): 50 µM | MIC [3]: 6.25 µM | MIC [4]: 25 µM | MIC [5]: 6.25 µM | СС50 Caco-2 [7]: > 150 µM | cytotoxic effects on Caco-2 cells ([7]; in words, at a concentration of 150 µM): practically no cytotoxic effects | Random, DPC micelles [8]: 35.5% | β-Turn, SDS micelles [9]: 23.4% | Random, aqueous solution [10]: 39.3% | α-Helix, SDS micelles [11]: 17.8% | α-Helix, aqueous solution [12]: 13.5% | β-Turn, aqueous solution [13]: 24.3% | β-Sheet, aqueous solution [15]: 22.9% | α-Helix, DPC micelles [16]: 18.2% | β-Sheet, SDS micelles [18]: 23% | β-Turn, DPC micelles [19]: 22.3% | β-Sheet, DPC micelles [21]: 24.1%

H-RECKTESNTFPGICITKPPCRKACISEKFTDGHCSRIRRRCLCTKPC-OH (disulfide 3-47, 14-34, 20-41, 24-43)
Random, SDS micelles: 31.9% | Random, DPC micelles [8]: 34.6% | β-Turn, SDS micelles [9]: 21.3% | Random, aqueous solution [10]: 35.6% | α-Helix, SDS micelles [11]: 6.5% | α-Helix, aqueous solution [12]: 5.6% | β-Turn, aqueous solution [13]: 22% | β-Sheet, aqueous solution [15]: 36.8% | α-Helix, DPC micelles [16]: 7.6% | β-Sheet, SDS micelles [18]: 40.4% | β-Turn, DPC micelles [19]: 22% | β-Sheet, DPC micelles [21]: 35.8%

H-RECKTESNTFPGICITKPPCRKACISEKFTDGHCSKILRRCLCRRPC-OH (disulfide 3-47, 14-34, 20-41, 24-43)
Random, SDS micelles: 32.5% | Random, DPC micelles [8]: 31.1% | β-Turn, SDS micelles [9]: 22.7% | Random, aqueous solution [10]: 38.9% | α-Helix, SDS micelles [11]: 16.2% | α-Helix, aqueous solution [12]: 7.6% | β-Turn, aqueous solution [13]: 23.7% | β-Sheet, aqueous solution [15]: 29.8% | α-Helix, DPC micelles [16]: 15.8% | β-Sheet, SDS micelles [18]: 28.5% | β-Turn, DPC micelles [19]: 22.6% | β-Sheet, DPC micelles [21]: 30.4%

H-RECKTESNTFPGICITKPPCRKACISEKFTDGHCSKIRRRCLCTKPC-OH (disulfide 3-47, 14-34, 20-41, 24-43)
Random, SDS micelles: 31.2% | Random, DPC micelles [8]: 32.9% | β-Turn, SDS micelles [9]: 21.8% | Random, aqueous solution [10]: 36.2% | α-Helix, SDS micelles [11]: 14.2% | α-Helix, aqueous solution [12]: 8.3% | β-Turn, aqueous solution [13]: 21.2% | β-Sheet, aqueous solution [15]: 34.3% | α-Helix, DPC micelles [16]: 15.5% | β-Sheet, SDS micelles [18]: 32.8% | β-Turn, DPC micelles [19]: 20.5% | β-Sheet, DPC micelles [21]: 31.1%
